{"source": "patent US5698565A", "about": "“Use of phenoxy-pyridine derivatives” (Hoffmann-La Roche Inc., priority 1995, dated 1997)", "note": "pKi: −log10 of the molar value.", "data": [{"target": "T1, dopamine-D4 receptor (Homo sapiens, UniProt P21917)", "T1 construct": "expressed in transfected cells; host or cells: CHO (Chinese Hamster Ovary) cells, D4-CHO; crude membranes", "T1 sequence (P21917 whole entry)": "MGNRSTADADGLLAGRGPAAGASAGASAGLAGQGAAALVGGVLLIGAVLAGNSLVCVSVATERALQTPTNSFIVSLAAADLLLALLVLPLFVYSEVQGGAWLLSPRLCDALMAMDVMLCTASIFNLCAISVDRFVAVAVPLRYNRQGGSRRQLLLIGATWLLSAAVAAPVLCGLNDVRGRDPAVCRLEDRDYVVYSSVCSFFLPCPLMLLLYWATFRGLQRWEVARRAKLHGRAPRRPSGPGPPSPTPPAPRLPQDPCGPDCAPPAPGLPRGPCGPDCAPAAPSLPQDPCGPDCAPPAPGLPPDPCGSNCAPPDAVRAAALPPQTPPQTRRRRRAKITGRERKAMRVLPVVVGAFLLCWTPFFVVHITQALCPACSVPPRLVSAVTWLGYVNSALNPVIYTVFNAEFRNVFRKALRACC", "test": "[3H]-spiperone binding at the D4 receptor, membranes of D4-CHO cells", "conditions": "crude membranes from D4-CHO cells, 200 pM [3H]-spiperone, room temperature, 90 minutes", "protocol": "Compounds of formula I were characterized by their binding behavior at the D4 receptor.\nCHO cells (Chinese Hamster Ovary) were used in the test. Crude membranes were isolated by ultracentrifugation from D4 -CHO and D2 -CHO cells and were stored at -80° C. After thawing and homogenizing in a buffer solution (50 mM Tris, 1 mM EDTA, 5 mM KCl, 1.5 mM CaCl2, 4 mM MgCl2, pH 7.4) they were incubated at room temperature for 90 minutes with 200 pM [3H]-spiperone and an increasing concentration (1×10^-11 M to 1×10^-4 M) of test compound. A non-specific binding was established by incubating in the presence of 1×10^-5 M (+)-butaclamol. The unbound radioligand was removed by filtration through a GF/C glass filter and the bound radioactivity was determined by scintillation in a Packard TopCount.\nThe calculation of the value was effected with ligand.", "values": [{"compound": "NC(=O)c1ccccc1OCC(O)CN1CC=C(c2ccc(F)cc2)CC1", "note": "(centres unmarked) [Compound 12, 2-[3-[4-(4-Fluoro-phenyl)-3,6-dihydro-2H-pyridinol-yl]-2-hydroxy-propoxy]-benzamide]", "pKi": "> 7.00"}, {"compound": "OC(COc1cccc(C(F)(F)F)c1)CN1CC=C(c2ccc(F)cc2)CC1", "note": "(centres unmarked) [Compound 11, 1-[4-(4-Fluoro-phenyl)-3,6-dihydro-2H-pyridin-1-yl)-3-(3-trifluoromethyl-phenoxy)-propan-2-ol]", "pKi": "> 7.00"}, {"compound": "CC(=O)c1ccccc1OCC(O)CN1CC=C(c2ccccc2)CC1", "note": "(centres unmarked) [Compound 7, 1-[2-[2-Hydroxy-3-(4-phenyl-3,6-dihydro-2H-pyridin-1-yl)-propoxy]-phenyl]-ethanone]", "pKi": "> 7.00"}, {"compound": "CC(=O)Nc1cc(Cl)ccc1OCC(O)CN1CC=C(c2ccccc2)CC1", "note": "(centres unmarked) [Compound 9, N-[5-Chloro-2-[2-hydroxy-3-(4-phenyl-3,6-dihydro-2H-pyridin-1-yl)-propoxy]-phenyl]acetamide]", "pKi": "> 7.00"}, {"compound": "COc1ccccc1OCC(O)CN1CC=C(c2ccccc2)CC1", "note": "(centres unmarked) [Compound 5, 1-(2-Methoxy-phenoxy)-3-(4-phenyl-3,6-dihydro-2H-pyridin-1-yl)-propan-2-ol]", "pKi": "> 7.00"}, {"compound": "Cc1ccccc1OCC(O)CN1CC=C(c2ccccc2)CC1", "note": "(centres unmarked) [Compound 2, 1-(4-Phenyl-3,6-dihydro-2H-pyridin-1-yl)-3-o-tolyloxy-propan-2-ol]", "pKi": "> 7.00"}, {"compound": "Cc1ccc(OCC(O)CN2CC=C(c3ccccc3)CC2)cc1C", "note": "(centres unmarked) [Compound 8, 1-(3,4-Dimethyl-phenoxy)-3-(4-phenyl-3,6-dihydro-2H-pyridin-1-yl)-propan-2-ol]", "pKi": "> 7.00"}, {"compound": "OCc1ccccc1OCC(O)CN1CC=C(c2ccccc2)CC1", "note": "(centres unmarked) [Compound 4, 1-(2-Hydroxymethyl-phenoxy)-3-(4-phenyl-3,6-dihydro-2H-pyridin-1-yl)-propan-2-ol]", "pKi": "> 7.00"}, {"compound": "CC(=O)Nc1ccccc1OCC(O)CN1CC=C(c2ccccc2)CC1", "note": "(centres unmarked) [Compound 6, N-[2-[2-Hydroxy-3-(4-phenyl-3,6-dihydro-2H-pyridin-1-yl)-propoxy]-phenyl]-acetamide]", "pKi": "> 7.00"}, {"compound": "OC(COc1cccc(C(F)(F)F)c1)CN1CC=C(c2ccccc2)CC1", "note": "(centres unmarked) [Compound 3, 1-(4-Phenyl-3,6-dihydro-2H-pyridin-1-yl)-3-(3-trifluoro-methylphenoxy)-propan-2-ol]", "pKi": "> 7.00"}, {"compound": "CC(=O)Nc1ccccc1OCC(O)CN1CC=C(c2ccc(Cl)cc2)CC1", "note": "(centres unmarked) [Compound 14]", "pKi": "> 7.00"}, {"compound": "OC(COc1cccc2ccccc12)CN1CC=C(c2ccccc2)CC1", "note": "(centres unmarked) [Compound 10, 1-(Naphthalen-1-yloxy)-3-(4-phenyl-3,6-dihydro-2H-pyridin-1-yl)-propan-2-ol]", "pKi": "> 7.00"}, {"compound": "Cc1cccc(OCC(O)CN2CC=C(c3ccccc3)CC2)c1", "note": "(centres unmarked) [Compound 1, 1-(4-Phenyl-3,6-dihydro-2H-pyridin-1-yl)-3-m-tolyloxy-5-propan-2-ol]", "pKi": "> 7.00"}, {"compound": "NC(=O)Nc1ccccc1OCC(O)CN1CC=C(c2ccc(F)cc2)CC1", "note": "(centres unmarked) [Compound 13, [2-[3-[4-(4-Fluoro-phenyl)-3,6-dihydro-2H-pyridin-1-yl]-2-hydroxy-propoxy]-phenyl]-urea]", "pKi": "> 7.00"}]}]}
